# Read-outs that look alike come from different tables or passages of the source.
# Assays:
# Leukemia L1210 [1] = experiment: Activity against Leukemia L1210, intraperitoneal, increase in life span of mice; format: in vivo, female mice (BDF1 family); conditions: for ED (maximum ILS) / ED30: Mus musculus, L1210, ip, ip once a day for 5 successive days; for ED (maximum ILS): daily dosage giving maximum increase of life span, read-out: O.D. (optimum dosage); for ED30: daily dosage increasing average survival days by 30%, read-out: ILS30; for Survivors after 60 days / Max. ILS % / Therapeutic ratio TR: ip; for Survivors after 60 days: 6-membered group; for Max. ILS %: 60-day observation, versus control; for Therapeutic ratio TR: O.D./ILS30
# Outline: (§1)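 Beginning 24 hours after intraperitoneal implantation of 1×10^5 leukemia cells, six-mouse groups of female BDF1 mice receive the test compound once daily for five consecutive days by the ip or oral route. Survival is recorded up to 60 days and compared with untreated controls.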
# Leukemia L1210 [2] = experiment: Activity against Leukemia L1210, oral, increase in life span of mice; format: in vivo, female mice (BDF1 family); conditions: for ED (maximum ILS) / ED30: Mus musculus, L1210, oral once a day for 5 successive days; for ED (maximum ILS): daily dosage giving maximum increase of life span, read-out: O.D. (optimum dosage); for ED30: daily dosage increasing average survival days by 30%, read-out: ILS30; for Survivors after 60 days / Max. ILS % / Therapeutic ratio TR: oral; for Survivors after 60 days: 6-membered group; for Max. ILS %: 60-day observation, versus control; for Therapeutic ratio TR: O.D./ILS30
# Outline: as §1
# Ehrlich acites carcinoma = experiment: Growth-inhibiting effect against Ehrlich acites carcinoma; format: in vivo, male mice; conditions: 5 days; for response vs control in vivo at 25 mg/kg / response vs control in vivo at 100 mg/kg / response vs control in vivo at 3.2 mg/kg / response vs control in vivo at 12.5 mg/kg / response vs control in vivo at 6.3 mg/kg: Mus musculus, Ehrlich, 120 h; for response vs control in vivo at 25 mg/kg: 25 mg/kg/day ip; for response vs control in vivo at 100 mg/kg: 100 mg/kg/day ip; for response vs control in vivo at 3.2 mg/kg: 3.2 mg/kg/day ip; for response vs control in vivo at 6.3 mg/kg: 6.3 mg/kg/day ip
# Outline: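 Male mice (groups of 6) implanted intraperitoneally with 1×10^7 Ehrlich ascites cells; compounds in 1% Nikkol HCO-60 given i.p. once daily for 5 days starting 24 hrs post-implantation. Total packed cell volume measured at day 7; T/C% vs untreated group, scored - (100-66), + (65-41), ++ (40-11), +++ (10-0).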
# [3] = Acute toxicity (LD50, Behrens-Karber method); format: in vivo, ICR mice; conditions: mouse, in vivo, ip, mortality during 30 days
# Method: Test compounds, dissolved or suspended in 0.5% aqueous CMC, were each intraperitoneally administered to ICR mice in a dose of 0.1 ml per 10 g body weight. LD50 (mg/kg) value of each test compound was calculated from the mortality of mice during 30 days by the Behrens-Karber method.
# [4] = 12.5 mg/kg/day ip, read-out: T/C %
Structure (SMILES),ED (maximum ILS) (Leukemia L1210 [1]),ED30 (Leukemia L1210 [1]),Survivors after 60 days (Leukemia L1210 [1]),Max. ILS % (Leukemia L1210 [1]),Therapeutic ratio TR (Leukemia L1210 [1]),ED (maximum ILS) (Leukemia L1210 [2]),ED30 (Leukemia L1210 [2]),Survivors after 60 days (Leukemia L1210 [2]),Max. ILS % (Leukemia L1210 [2]),Therapeutic ratio TR (Leukemia L1210 [2]),response vs control in vivo at 25 mg/kg (Ehrlich acites carcinoma; read-out: Activity),response vs control in vivo at 25 mg/kg (Ehrlich acites carcinoma; read-out: T/C %),response vs control in vivo at 100 mg/kg (Ehrlich acites carcinoma; read-out: Activity),response vs control in vivo at 100 mg/kg (Ehrlich acites carcinoma; read-out: T/C %),LD50 at 720 h [3],further results
"CCCCO[C@H]1O[C@H](CO)[C@H](N(C(=O)N(CCCl)N=O)C(C)COC)[C@H](O)[C@H]1O (stereo partly drawn) [Compound 132, 3-(1-methyl-2-methoxyethyl)-3-(n-butyl α-D-galactopyranose-4-yl)-1-(2-chloroethyl)-1-nitrosourea]",160 mg/kg,3.86 mg/kg,4/6,> 420%,41.5,200 mg/kg,14 mg/kg,3/6,> 345%,14.3,0 to 10%,0%,0 to 10%,0%,550 mg/kg,–
"COCCN(C[C@H]1O[C@H](OC2CCCCC2)[C@H](O)[C@@H](O)[C@H]1O)C(=O)N(CCCl)N=O [Compound 101, 3-(2-methoxyethyl)-3-(cyclohexyl α-D-galactopyranose-6-yl)-1-(2-chloroethyl)-1-nitrosourea]",200 mg/kg,3.66 mg/kg,6/6,> 700%,54.6,250 mg/kg,11.2 mg/kg,4/6,> 460%,22.3,0 to 10%,0%,0 to 10%,0%,660 mg/kg,–
"COCC(C)N(C[C@H]1O[C@H](OC2CCCCC2)[C@H](O)[C@@H](O)[C@@H]1O)C(=O)N(CCCl)N=O (stereo partly drawn) [Compound 42, 3-(1-methyl-2-methoxyethyl)-3-(cyclohexyl α-D-glucopyranose-6-yl)-1-(2-chloroethyl)-1-nitrosourea]",180 mg/kg,2.7 mg/kg,6/6,> 700%,66.6,230 mg/kg,7.88 mg/kg,6/6,> 700%,29.2,0 to 10%,0%,0 to 10%,0%,595 mg/kg,–
"O=NN(CCCl)C(=O)N(C1CCCCC1)C1C(OCC2CCCO2)OC(CO)C(O)C1O [Compound 75, 3-cyclohexyl-3-(tetrahydrofurfuryl α-D-glucopyranose-2-yl)-1-(2-chloroethyl)-1-nitrosourea]",160 mg/kg,3.67 mg/kg,5/6,> 625%,43.6,200 mg/kg,11.6 mg/kg,4/6,> 450%,17.2,0 to 10%,0%,0 to 10%,0%,505 mg/kg,–
"CC(CN1CCOCC1)O[C@@H]1O[C@H](CN(C(=O)N(CCCl)N=O)C(C)(C)C)[C@@H](O)[C@H](O)[C@H]1O (stereo partly drawn) [Compound 200, 3-tert-butyl-3-(1-morpholinoisopropyl β-D-glucopyranose-6-yl)-1-(2-chloroethyl)-1-nitrosourea]",150 mg/kg,3.11 mg/kg,6/6,> 700%,48.2,190 mg/kg,10.1 mg/kg,4/6,> 460%,18.9,0 to 10%,0%,0 to 10%,0%,480 mg/kg,–
"CCOCCO[C@H]1O[C@H](CN(CC(C)C)C(=O)N(CCCl)N=O)[C@H](O)[C@H](O)[C@H]1O [Compound 114, 3-isobutyl-3-(2-ethoxyethyl α-D-galactopyranose-6-yl)-1-(2-chloroethyl)-1-nitrosourea]",180 mg/kg,2.86 mg/kg,6/6,> 700%,62.9,210 mg/kg,9.05 mg/kg,6/6,> 700%,23.2,0 to 10%,0%,0 to 10%,0%,580 mg/kg,–
"O=NN(CCCl)C(=O)N[C@@H]1O[C@H](CO)[C@@H](O)[C@H](O)[C@H]1O [GANU, 3-(β-D-glucopyranosyl)-1-(2-chloroethyl)-1-nitrosourea, reference compound]",6.2 mg/kg,0.45 mg/kg,4/6,> 425%,13.8,6.35 mg/kg,2.5 mg/kg,0/6,94%,2.54,–,–,–,–,35 mg/kg,"Activity (toxicity in words) (Ehrlich acites carcinoma; 25.0 mg/kg/day ip): Toxic (6/6); response vs control in vivo at 3.2 mg/kg (Ehrlich acites carcinoma; read-out: Activity): 0 to 10%; response vs control in vivo at 3.2 mg/kg (Ehrlich acites carcinoma; read-out: T/C %): 0%; response vs control in vivo at 12.5 mg/kg (Ehrlich acites carcinoma; 12.5 mg/kg/day ip, read-out: Activity): 0 to 10%; response vs control in vivo at 12.5 mg/kg (Ehrlich acites carcinoma; [4]): 0%"
"CCOCCN(C(=O)N(CCCl)N=O)[C@@H]1[C@@H](O)[C@@H](OC2CCCCC2)OC[C@H]1O [Compound 149, 3-(2-ethoxyethyl)-3-(cyclohexyl α-D-xylopyranose-3-yl)-1-(2-chloroethyl)-1-nitrosourea]",170 mg/kg,2.9 mg/kg,6/6,> 700%,58.6,210 mg/kg,12.8 mg/kg,4/6,> 440%,16.4,0 to 10%,0%,0 to 10%,0%,540 mg/kg,–
"CC(C)CN(C[C@H]1O[C@@H](OCC2CCCO2)[C@H](O)[C@@H]1O)C(=O)N(CCCl)N=O (stereo partly drawn) [Compound 170, 3-isobutyl-3-(tetrahydrofurfuryl β-D-ribofuranose-5-yl)-1-(2-chloroethyl)-1-nitrosourea]",160 mg/kg,3 mg/kg,5/6,> 620%,53.3,190 mg/kg,13.4 mg/kg,4/6,> 440%,14.2,0 to 10%,0%,0 to 10%,0%,505 mg/kg,–
"CO[C@H]1O[C@H](CNC(=O)N(CCCl)N=O)[C@@H](O)[C@H](O)[C@H]1O [Compound 6MCαG, 3-(methyl α-D-glucopyranose-6-yl)-1-(2-chloroethyl)-1-nitrosourea, reference compound]",13.5 mg/kg,0.53 mg/kg,6/6,> 700%,25.5,16.8 mg/kg,2.45 mg/kg,6/6,> 700%,6.86,–,–,–,–,40 mg/kg,Activity (toxicity in words) (Ehrlich acites carcinoma; 12.5 mg/kg/day ip): Toxic (2/6); response vs control in vivo at 3.2 mg/kg (Ehrlich acites carcinoma; read-out: Activity): 0 to 10%; response vs control in vivo at 3.2 mg/kg (Ehrlich acites carcinoma; read-out: T/C %): 0%; response vs control in vivo at 6.3 mg/kg (Ehrlich acites carcinoma; read-out: Activity): 0 to 10%; response vs control in vivo at 6.3 mg/kg (Ehrlich acites carcinoma; read-out: T/C %): 0%; response vs control in vivo at 12.5 mg/kg (Ehrlich acites carcinoma; [4]): 0%
